Reference: paper PMC7664216, “An Odorant Binding Protein (SaveOBP9) Involved in Chemoreception of the Wheat Aphid Sitobion avenae” (International Journal of Molecular Sciences, 2020)
Entries after “also recorded” stand apart in the source; their conditions may differ. Like-named read-outs stand apart in the source and are kept apart here.

Tests used:
SaveOBP9 = SaveOBP9 (Sitobion avenae, UniProt A0A1I9ZLB6); experiment: Fluorescence competitive ligand binding assay with probe 1-NPN; settings: 1-NPN probe
Description: Methanol (spectrophotometric-grade) was used to prepare the standard solution of each tested ligand (Sigma Aldrich, St. Louis, MO, USA). The binding ability of 1-NPN was measured by adding 1-NPN (1 mM) into protein solution (2 μM L^−1) diluted with Tris-HCl (30 mM), and the final concentration was made to 0 to 20 μM L^−1 at room temperature.
The ligand’s binding with SaveOBP9 was conducted with three independent replicates.

Sitobion avenae = experiment: Y-tube olfactometer behavioral bioassay; format: in vivo; settings: for Behavioral response of S. avenae: wingless adults, odor 0.10% (v/v) vs liquid paraffin control, pre-RNAi; for Post-RNAi behavioral response of S. avenae: after 3 days of dsSaveOBP9 feeding (50 ng/µL), compared to dsGFP and Control
Excerpt: Behavioral responses of Sitobion avenae were examined by using a glass Y-tube olfactometer (base = 2.0 cm diameter by 14 cm length, arms = 2.0 cm diameter by 13 cm length) using 7 different volatile compounds (Sigma-Aldrich, St. Louis, MO, USA). Air was passed through the activated charcoal for filtration at the continuous rate of 0.5 L/min and humidified using deionized water followed by the splitting of air between two arms of the olfactometer. One arm contained liquid paraffin (control) and the other had the test ligand. In addition, both chambers were connected to the central arm of the Y-tube. An aliquot of odors and liquid paraffin were loaded on with the concentration of 0.10% (v/v). Aphids were then placed in the trunk. Each insect was allowed 15 min to respond to the treatment, and the numbers of aphids showing attraction, repulsion, or no response were counted. Three replications (20 wingless aphids in each replication) for each group were applied.
Y-tube bioassays were carried out before and after dietary RNAi application to confirm the SaveOBP9 gene-silencing outcome. Two treatments containing liquid paraffin and seven compounds (Ki < 10 μM), 2-ethyl1-hexanol, decanal, tetradecane, hexadecane, octanal, α-farnesene, and hexanal, were used. Three treatments containing Control, dsGFP feeding and dsRNA feeding were tested in behavioral trials after 3 days of feeding. For the post-RNAi bioassays, individuals were tested using the compounds: Tetradecane, octanal, decanal, and hexadecane. These four ligands were carefully chosen based on the observation of significant responses of S.avenae to these compounds in bioassays performed prior to the application of dietary RNAi.

AlinOBP1 = test system: AlinOBP1; design: method as in PMID 21541988; settings: cited from earlier work
Aphis fabae = test system: Aphis fabae; design: method as in PMID 18584254; settings: Black bean aphid Aphis fabae; cited from earlier work
SaveOBP2 = test system: SaveOBP2; design: method as in PMID 22306433; settings: cited from earlier work
SaveOBP7 = test system: SaveOBP7; design: method as in PMID 22306433; settings: cited from earlier work
SaveOBP3 = test system: SaveOBP3; design: method as in PMID 22306433; settings: cited from earlier work

Sequence of SaveOBP9 (A0A1I9ZLB6 entry or part of it): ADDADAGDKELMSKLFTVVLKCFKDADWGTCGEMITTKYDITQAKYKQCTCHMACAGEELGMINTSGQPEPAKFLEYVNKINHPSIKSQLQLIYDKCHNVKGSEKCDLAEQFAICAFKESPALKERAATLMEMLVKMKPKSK

| Molecule | IC50 (SaveOBP9; pH 5.0, read-out: IC50) | Ki (SaveOBP9; pH 5.0, read-out: Ki) | IC50 (SaveOBP9; pH 7.4, read-out: IC50) | Ki (SaveOBP9; pH 7.4, read-out: Ki) | IC50 (SaveOBP9; IC50, pH 5.0) | IC50 (SaveOBP9; IC50, pH 7.4) | Ki (SaveOBP9; Ki, pH 5.0) | Ki (SaveOBP9; Ki, pH 7.4) | further results |
| --- | --- | --- | --- | --- | --- | --- | --- | --- | --- |
| CC12CCC(CC1=O)C2(C)C (racemic) [(±)-Camphor] | 17.4 µM | 15.7 µM | 48.2 µM | 42.8 µM | – | – | – | – | – |
| CC1=CCC2C(C1)C2(C)C (single isomer, unassigned; (+)) [(+)-3-Carene] | 39.9 µM | 36.1 µM | 14.7 µM | 13 µM | – | – | – | – | – |
| C=CC(O)CCCCC (centres unmarked) [1-Octen-3-ol] | 34.2 µM | 30.9 µM | 24.2 µM | 21.5 µM | – | – | – | – | – |
| CCCCC(CC)CO (centres unmarked) [2-Ethyl-1-hexanol] | 43.8 µM | 39.6 µM | 11.2 µM | 9.93 µM | – | – | – | – | Behavioral response of S. avenae (Sitobion avenae): did not show stimuli; Binding affinity (AlinOBP1): high binding affinity |
| C=CCCN=C=S [3-Butenyl isothiocyanate] | – | – | – | – | 26.3 µM | 52.7 µM | 23.8 µM | 46.8 µM | – |
| CC(=O)c1ccccc1 [Acetophenone] | 30.8 µM | 27.8 µM | 13 µM | 11.5 µM | – | – | – | – | – |
| O=Cc1ccccc1 [Benzaldehyde] | – | – | – | – | 41 µM | 109 µM | 37 µM | 96.5 µM | – |
| Cc1cc(C(C)(C)C)c(O)c(C(C)(C)C)c1 [Butylated Hydroxytoluene] | 8.8 µM | 7.95 µM | 45.6 µM | 40.5 µM | – | – | – | – | – |
| CCCCCCCCCC=O [Decanal] | 19.8 µM | 17.9 µM | 9.95 µM | 8.84 µM | – | – | – | – | EAG response (Aphis fabae): significant electroantennography (EAG) response; Binding ability (SaveOBP2): None of the three SaveOBPs have the ability to bind; Binding ability (SaveOBP7): None of the three SaveOBPs have the ability to bind; Post-RNAi behavioral response of S. avenae (Sitobion avenae): non-significant preference; Behavioral response of S. avenae (Sitobion avenae): significantly showed attractive responses; also recorded: strongly attracted S. avenae; Binding ability (SaveOBP3): None of the three SaveOBPs have the ability to bind |
| CCCCCCCCCCCCCCCC [Hexadecane] | 14.6 µM | 13.2 µM | 10.9 µM | 9.68 µM | – | – | – | – | Binding ability (SaveOBP2): None of the three SaveOBPs have the ability to bind; Binding ability (SaveOBP7): None of the three SaveOBPs have the ability to bind; Post-RNAi behavioral response of S. avenae (Sitobion avenae): non-significant preference; Behavioral response of S. avenae (Sitobion avenae): significantly showed attractive responses; also recorded: strongly attracted S. avenae; Binding ability (SaveOBP3): None of the three SaveOBPs have the ability to bind |
| CCCCCC=O [Hexanal] | – | – | – | – | 16.8 µM | 8.23 µM | 15.2 µM | 7.31 µM | Behavioral response of S. avenae (Sitobion avenae): did not show stimuli |
| C=CC(C)(O)CCC=C(C)C (centres unmarked) [Linalool] | – | – | – | – | 11.8 µM | 24.1 µM | 10.7 µM | 21.4 µM | – |
| COC(=O)c1ccccc1O [Methyl salicylate] | – | – | – | – | 24.2 µM | 13.4 µM | 21.9 µM | 11.9 µM | – |
| c1ccc2ccccc2c1 [Naphthalene] | – | – | – | – | 30.3 µM | 13 µM | 27.4 µM | 11.5 µM | – |
| CCCCCCCCC=O [Nonanal] | 12.3 µM | 11.1 µM | 39.8 µM | 35.4 µM | – | – | – | – | – |
| CCCCCCCC=O [Octanal] | 20.3 µM | 18.3 µM | 8.79 µM | 7.8 µM | – | – | – | – | EAG response (Aphis fabae): significant electroantennography (EAG) response; Binding ability (SaveOBP2): relatively moderate binding ability; Binding ability (SaveOBP7): no binding ability; Post-RNAi behavioral response of S. avenae (Sitobion avenae): non-significant preference; Behavioral response of S. avenae (Sitobion avenae): significantly showed attractive responses; also recorded: strongly attracted S. avenae; Binding ability (SaveOBP3): relatively moderate binding ability |

| Molecule | IC50 (SaveOBP9; pH 5.0, read-out: IC50) | Ki (SaveOBP9; pH 5.0, read-out: Ki) | IC50 (SaveOBP9; pH 7.4, read-out: IC50) | Ki (SaveOBP9; pH 7.4, read-out: Ki) | IC50 (SaveOBP9; IC50, pH 5.0) | IC50 (SaveOBP9; IC50, pH 7.4) | Ki (SaveOBP9; Ki, pH 5.0) | Ki (SaveOBP9; Ki, pH 7.4) | further results |
| --- | --- | --- | --- | --- | --- | --- | --- | --- | --- |
| CCCCCCCCCCCCCCC [Pentadecane] | 15.1 µM | 13.7 µM | 12.8 µM | 11.4 µM | – | – | – | – | – |
| C=C(C)[C@@H]1CC=C(C)CC1 [S-(−)-Limonene] | 11.5 µM | 10.4 µM | 32.1 µM | 28.5 µM | – | – | – | – | – |
| CCCCCCCCCCCCCC [Tetradecane] | 11.9 µM | 10.7 µM | 7.96 µM | 7.07 µM | – | – | – | – | Post-RNAi behavioral response of S. avenae (Sitobion avenae): non-significant preference; Behavioral response of S. avenae (Sitobion avenae): significantly showed attractive responses; also recorded: strongly attracted S. avenae |
| CC/C=C\CCO [cis-3-Hexen-1-ol] | – | – | – | – | 36.9 µM | 13.2 µM | 33.3 µM | 11.8 µM | – |
| CC/C=C\CCOC(C)=O [cis-3-Hexenyl acetate] | – | – | 29.7 µM | 26.4 µM | – | – | – | – | – |
| CCC/C=C/C=O [trans-2-Hexen-1-al] | – | – | – | – | 21.6 µM | 41.9 µM | 19.5 µM | 37.2 µM | – |
| CCC/C=C/CO [trans-2-Hexen-1-ol] | – | – | – | – | 21.7 µM | 14.5 µM | 19.6 µM | 12.9 µM | – |
| C=CC(=C)CC/C=C(\C)CCC=C(C)C [trans-β-farnesene] | – | – | – | – | – | – | – | – | Binding ability (SaveOBP7): could bind; Binding ability (SaveOBP3): could bind |
| C=C/C(C)=C/C/C=C(\C)CCC=C(C)C [α-Farnesene] | 9.51 µM | 8.59 µM | 10.3 µM | 9.11 µM | – | – | – | – | Behavioral response of S. avenae (Sitobion avenae): did not show stimuli |
| CC1=CCC2CC1C2(C)C (stereo not drawn) [α-Pinene] | – | – | – | – | 27.2 µM | 38 µM | 24.6 µM | 33.7 µM | – |
| CC1=CC[C@@H](C(C)(C)O)CC1 [α-Terpineol] | – | – | – | – | 37.4 µM | 26.2 µM | 33.8 µM | 23.3 µM | – |
| C=C1CCC2CC1C2(C)C (stereo not drawn) [β -Pinene] | – | – | – | – | 27.7 µM | 37.4 µM | 25.1 µM | 33.2 µM | – |
| C=C1CC/C=C(\C)CC[C@@H]2[C@@H]1CC2(C)C [β-Caryophyllene] | – | – | – | – | 622 µM | 52.4 µM | 562 µM | 46.6 µM | – |
| C=CC(=C)CCC=C(C)C [β-Myrcene] | 10.7 µM | 9.67 µM | 12.2 µM | 10.8 µM | – | – | – | – | – |
| (+)-Limonene oxide | 37.5 µM | 33.9 µM | 24.3 µM | 21.6 µM | – | – | – | – | – |
